From PMC8222254, “Self-assembly of an anion receptor with metal-dependent kinase inhibition and potent in vitro anti-cancer properties” (Nature Communications, 2021)
Values joined by “and” are separate entries in the source; they are usually repeats but may differ in a detail not shown here. Equal values may be shown once.

Assays:
Assay in all cases: Kinase inhibition screen, cell-free 33P ATP assay at 10 μM
Format in all cases: biochemical
[1] = molecular target: T1, 140 purified human kinases (Homo sapiens, UniProt P54753)
T1 sequence (P54753 34-998): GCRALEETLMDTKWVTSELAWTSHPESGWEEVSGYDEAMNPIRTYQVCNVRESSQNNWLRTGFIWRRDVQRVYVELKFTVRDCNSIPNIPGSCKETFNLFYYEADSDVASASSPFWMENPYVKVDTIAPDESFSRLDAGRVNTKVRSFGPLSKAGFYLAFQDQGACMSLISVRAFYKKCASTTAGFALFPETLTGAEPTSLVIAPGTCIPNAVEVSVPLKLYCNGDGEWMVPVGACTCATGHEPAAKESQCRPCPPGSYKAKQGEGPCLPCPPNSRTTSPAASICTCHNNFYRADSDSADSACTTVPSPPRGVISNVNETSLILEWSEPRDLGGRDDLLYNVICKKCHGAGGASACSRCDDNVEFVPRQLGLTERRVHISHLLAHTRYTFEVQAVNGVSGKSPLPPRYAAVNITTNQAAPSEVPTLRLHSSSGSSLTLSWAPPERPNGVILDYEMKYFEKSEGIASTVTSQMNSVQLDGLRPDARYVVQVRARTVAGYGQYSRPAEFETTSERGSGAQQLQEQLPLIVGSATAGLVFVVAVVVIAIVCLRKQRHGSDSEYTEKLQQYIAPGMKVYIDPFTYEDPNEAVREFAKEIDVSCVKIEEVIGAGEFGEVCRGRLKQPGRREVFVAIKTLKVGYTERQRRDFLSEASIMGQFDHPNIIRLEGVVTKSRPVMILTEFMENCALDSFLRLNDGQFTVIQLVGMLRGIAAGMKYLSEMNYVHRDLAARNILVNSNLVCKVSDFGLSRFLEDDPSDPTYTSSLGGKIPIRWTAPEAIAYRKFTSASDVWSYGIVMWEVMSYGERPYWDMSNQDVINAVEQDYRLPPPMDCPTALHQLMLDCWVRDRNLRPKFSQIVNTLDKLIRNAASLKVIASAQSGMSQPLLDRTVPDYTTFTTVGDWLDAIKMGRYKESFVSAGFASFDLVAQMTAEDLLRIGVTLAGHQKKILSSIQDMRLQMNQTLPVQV
In short: (§1)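 Each complex tested in duplicate at 10 μM; cell-free radiometric assay using ^33P ATP on purified enzymes. Hits mapped by HGNC symbol onto the kinome tree.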

[2] = molecular target: 140 purified human kinases (Homo sapiens, UniProt P17948); details: VEG-FR
140 purified human kinases (Homo sapiens, UniProt P17948), sequence (P17948 27-1338): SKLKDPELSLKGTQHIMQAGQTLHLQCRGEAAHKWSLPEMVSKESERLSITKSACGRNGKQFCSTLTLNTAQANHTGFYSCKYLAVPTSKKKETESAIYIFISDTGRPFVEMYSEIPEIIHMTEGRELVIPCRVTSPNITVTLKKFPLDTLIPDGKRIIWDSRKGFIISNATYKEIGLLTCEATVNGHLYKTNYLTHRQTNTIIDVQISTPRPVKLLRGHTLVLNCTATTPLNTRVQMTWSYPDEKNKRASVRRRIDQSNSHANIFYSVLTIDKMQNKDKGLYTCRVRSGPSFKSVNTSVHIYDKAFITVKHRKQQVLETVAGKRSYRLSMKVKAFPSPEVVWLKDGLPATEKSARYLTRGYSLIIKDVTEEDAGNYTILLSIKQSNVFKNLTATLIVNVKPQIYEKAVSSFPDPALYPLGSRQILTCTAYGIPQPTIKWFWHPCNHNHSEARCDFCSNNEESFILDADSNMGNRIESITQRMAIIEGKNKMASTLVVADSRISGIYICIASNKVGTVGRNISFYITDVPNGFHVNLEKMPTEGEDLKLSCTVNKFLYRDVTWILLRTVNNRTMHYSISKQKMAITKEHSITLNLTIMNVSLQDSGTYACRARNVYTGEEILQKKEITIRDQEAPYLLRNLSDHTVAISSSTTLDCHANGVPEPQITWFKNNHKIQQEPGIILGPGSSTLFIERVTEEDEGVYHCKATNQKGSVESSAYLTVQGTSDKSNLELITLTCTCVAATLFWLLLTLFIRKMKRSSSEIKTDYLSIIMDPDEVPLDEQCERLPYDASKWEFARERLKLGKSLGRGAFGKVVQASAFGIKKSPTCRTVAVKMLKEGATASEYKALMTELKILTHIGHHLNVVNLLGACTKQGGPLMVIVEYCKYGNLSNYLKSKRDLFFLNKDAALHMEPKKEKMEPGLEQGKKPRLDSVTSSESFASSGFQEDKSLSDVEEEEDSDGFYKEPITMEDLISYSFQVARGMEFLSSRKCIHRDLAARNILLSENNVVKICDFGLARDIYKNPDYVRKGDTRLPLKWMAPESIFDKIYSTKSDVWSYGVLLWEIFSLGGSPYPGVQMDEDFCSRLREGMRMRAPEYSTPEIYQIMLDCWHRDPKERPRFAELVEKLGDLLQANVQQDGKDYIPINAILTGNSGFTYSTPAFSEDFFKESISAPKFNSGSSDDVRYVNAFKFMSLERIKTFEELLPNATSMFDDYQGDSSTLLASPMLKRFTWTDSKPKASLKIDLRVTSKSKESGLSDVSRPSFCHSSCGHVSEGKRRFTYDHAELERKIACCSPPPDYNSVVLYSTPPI
In short: as §1

[3] = molecular target: 140 purified human kinases (Homo sapiens, UniProt P29317)
140 purified human kinases (Homo sapiens, UniProt P29317), sequence (P29317 24-976): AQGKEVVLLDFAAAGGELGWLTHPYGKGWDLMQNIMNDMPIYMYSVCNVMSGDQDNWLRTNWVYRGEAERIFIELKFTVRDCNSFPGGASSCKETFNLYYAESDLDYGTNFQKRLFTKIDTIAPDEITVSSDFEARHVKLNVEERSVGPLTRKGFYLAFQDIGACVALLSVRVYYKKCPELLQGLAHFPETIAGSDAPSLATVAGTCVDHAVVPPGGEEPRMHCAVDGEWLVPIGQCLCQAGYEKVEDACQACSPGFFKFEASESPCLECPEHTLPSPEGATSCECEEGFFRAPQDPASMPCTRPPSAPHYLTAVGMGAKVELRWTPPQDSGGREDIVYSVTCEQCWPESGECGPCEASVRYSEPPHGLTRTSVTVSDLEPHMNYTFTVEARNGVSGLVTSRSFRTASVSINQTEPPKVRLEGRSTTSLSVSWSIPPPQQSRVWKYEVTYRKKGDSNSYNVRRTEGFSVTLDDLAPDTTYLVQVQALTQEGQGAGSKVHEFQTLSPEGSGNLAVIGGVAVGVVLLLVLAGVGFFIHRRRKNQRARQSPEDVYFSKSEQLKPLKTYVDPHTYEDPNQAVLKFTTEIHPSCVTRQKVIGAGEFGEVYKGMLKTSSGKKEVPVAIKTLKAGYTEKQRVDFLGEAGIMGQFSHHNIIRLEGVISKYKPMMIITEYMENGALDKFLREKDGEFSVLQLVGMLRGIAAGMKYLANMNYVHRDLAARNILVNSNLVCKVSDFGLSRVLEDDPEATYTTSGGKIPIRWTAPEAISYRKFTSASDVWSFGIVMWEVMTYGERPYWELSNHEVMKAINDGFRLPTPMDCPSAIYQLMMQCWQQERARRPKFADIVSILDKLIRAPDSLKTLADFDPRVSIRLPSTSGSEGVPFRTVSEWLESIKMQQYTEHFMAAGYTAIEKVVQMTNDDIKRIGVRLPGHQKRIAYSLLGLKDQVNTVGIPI
In short: as §1

[4] = molecular target: 140 purified human kinases (Homo sapiens, UniProt Q14012); details: for % Activity inhibition Mean / % Activity inhibition Run 1 / % Activity inhibition Run 2 / % Activity remaining Run 1 / % Activity remaining Run 2: 10 µM
140 purified human kinases (Homo sapiens, UniProt Q14012), sequence (Q14012 whole entry): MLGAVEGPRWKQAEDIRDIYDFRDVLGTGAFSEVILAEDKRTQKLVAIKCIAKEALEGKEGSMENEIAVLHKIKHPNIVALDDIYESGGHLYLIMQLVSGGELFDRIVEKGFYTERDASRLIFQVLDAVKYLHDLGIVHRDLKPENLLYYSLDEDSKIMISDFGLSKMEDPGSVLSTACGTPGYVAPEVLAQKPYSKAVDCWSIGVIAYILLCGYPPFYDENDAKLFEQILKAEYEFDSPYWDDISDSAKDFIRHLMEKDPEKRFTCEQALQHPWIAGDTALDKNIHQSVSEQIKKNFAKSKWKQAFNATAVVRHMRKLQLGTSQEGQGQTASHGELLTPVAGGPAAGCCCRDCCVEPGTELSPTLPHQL
In short: as §1

[5] = molecular target: 140 purified human kinases (Homo sapiens, UniProt P51617)
In short: as §1

[6] = molecular target: 140 purified human kinases (Homo sapiens, UniProt Q15569)
140 purified human kinases (Homo sapiens, UniProt Q15569), sequence (Q15569 whole entry): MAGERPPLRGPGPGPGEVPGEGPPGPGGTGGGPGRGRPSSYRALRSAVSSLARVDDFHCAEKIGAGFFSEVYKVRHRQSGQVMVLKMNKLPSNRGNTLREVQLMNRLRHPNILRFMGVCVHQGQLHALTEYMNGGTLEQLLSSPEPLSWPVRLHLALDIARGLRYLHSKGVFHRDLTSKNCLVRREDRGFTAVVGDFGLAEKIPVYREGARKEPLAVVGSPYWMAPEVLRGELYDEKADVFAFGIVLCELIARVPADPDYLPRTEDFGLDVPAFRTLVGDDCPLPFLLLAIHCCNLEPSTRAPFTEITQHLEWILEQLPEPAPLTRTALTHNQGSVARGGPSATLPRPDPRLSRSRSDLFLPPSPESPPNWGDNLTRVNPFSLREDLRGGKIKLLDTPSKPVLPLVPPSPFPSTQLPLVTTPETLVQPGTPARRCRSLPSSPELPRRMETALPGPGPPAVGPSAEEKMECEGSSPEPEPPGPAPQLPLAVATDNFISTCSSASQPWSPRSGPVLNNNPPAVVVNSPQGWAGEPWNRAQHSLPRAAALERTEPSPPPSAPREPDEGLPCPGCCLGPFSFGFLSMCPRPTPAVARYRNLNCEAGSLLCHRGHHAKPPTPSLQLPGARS
In short: as §1

[7] = molecular target: 140 purified human kinases (Homo sapiens, UniProt P08069); details: IGF-1R
140 purified human kinases (Homo sapiens, UniProt P08069), sequence (P08069 31-1367): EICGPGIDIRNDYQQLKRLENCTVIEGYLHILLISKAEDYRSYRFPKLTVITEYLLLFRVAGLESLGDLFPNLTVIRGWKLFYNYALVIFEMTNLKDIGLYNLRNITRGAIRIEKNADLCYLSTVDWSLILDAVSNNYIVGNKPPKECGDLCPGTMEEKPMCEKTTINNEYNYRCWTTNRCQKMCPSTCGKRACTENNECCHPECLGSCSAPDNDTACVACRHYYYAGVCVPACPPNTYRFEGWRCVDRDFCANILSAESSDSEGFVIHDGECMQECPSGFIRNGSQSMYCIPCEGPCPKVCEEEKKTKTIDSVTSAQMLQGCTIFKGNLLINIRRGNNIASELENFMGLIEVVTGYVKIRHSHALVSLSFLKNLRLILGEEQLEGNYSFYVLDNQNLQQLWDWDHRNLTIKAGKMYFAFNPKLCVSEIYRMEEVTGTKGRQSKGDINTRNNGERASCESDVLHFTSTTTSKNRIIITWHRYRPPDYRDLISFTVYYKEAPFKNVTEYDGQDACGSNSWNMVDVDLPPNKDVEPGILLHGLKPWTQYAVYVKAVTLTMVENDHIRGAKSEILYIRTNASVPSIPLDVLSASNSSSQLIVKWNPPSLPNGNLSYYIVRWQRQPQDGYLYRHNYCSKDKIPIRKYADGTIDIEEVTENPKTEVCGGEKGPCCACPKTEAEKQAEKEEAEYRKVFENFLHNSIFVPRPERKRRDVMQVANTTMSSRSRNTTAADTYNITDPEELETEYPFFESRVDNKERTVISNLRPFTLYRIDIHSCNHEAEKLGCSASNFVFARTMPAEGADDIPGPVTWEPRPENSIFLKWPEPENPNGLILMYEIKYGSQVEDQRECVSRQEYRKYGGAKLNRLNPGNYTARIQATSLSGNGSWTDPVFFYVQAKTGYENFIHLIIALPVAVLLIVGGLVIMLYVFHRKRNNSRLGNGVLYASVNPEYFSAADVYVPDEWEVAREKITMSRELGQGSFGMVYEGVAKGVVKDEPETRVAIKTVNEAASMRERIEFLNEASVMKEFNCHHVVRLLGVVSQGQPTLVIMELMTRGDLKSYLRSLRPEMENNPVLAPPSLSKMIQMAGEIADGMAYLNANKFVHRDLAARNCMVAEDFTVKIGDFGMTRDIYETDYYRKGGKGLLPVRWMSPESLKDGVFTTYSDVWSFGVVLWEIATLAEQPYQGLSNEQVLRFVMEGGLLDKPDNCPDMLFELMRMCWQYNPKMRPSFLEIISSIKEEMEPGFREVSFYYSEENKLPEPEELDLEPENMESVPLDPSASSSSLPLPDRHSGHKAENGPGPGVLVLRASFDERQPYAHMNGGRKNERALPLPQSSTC
In short: as §1

[8] = molecular target: T2, 140 purified human kinases (Homo sapiens, UniProt P52564)
T2 sequence (P52564 1-334): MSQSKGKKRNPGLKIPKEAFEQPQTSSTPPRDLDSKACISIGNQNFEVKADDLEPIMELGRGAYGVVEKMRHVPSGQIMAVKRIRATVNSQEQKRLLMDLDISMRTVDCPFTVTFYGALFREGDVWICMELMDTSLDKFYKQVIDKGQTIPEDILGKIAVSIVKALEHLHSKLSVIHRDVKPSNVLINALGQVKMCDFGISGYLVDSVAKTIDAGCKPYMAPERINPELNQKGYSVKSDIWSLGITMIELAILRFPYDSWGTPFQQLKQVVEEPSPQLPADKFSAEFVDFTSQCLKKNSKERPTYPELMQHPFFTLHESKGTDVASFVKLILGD
In short: as §1

Compound: [Cu+2].[Cu+2].[Cu+2].c1ccc(-c2csc(NCCN(CCNc3nc(-c4ccccn4)cs3)CCNc3nc(-c4ccccn4)cs3)n2)nc1.c1ccc(-c2csc(NCCN(CCNc3nc(-c4ccccn4)cs3)CCNc3nc(-c4ccccn4)cs3)n2)nc1 [[L2Cu3]6+]
- % Inhibition Run 1 ([1]; EPH-B3): 12.5%
- % Inhibition Run 2 ([1]; EPH-B3): 19.2%
- % Inhibition, Mean ([1]; EPH-B3): 16%
- mean % activity ([1]; EPH-B3): 84%
- % activity ([1]; EPH-B3, Run 1): 87.5%
- % activity ([1]; EPH-B3, Run 2): 80.8%
- % Inhibition Run 1 [2]: 28.1%
- % Inhibition Run 2 [2]: 27.2%
- % Inhibition, Mean [2]: 28%
- mean % activity [2]: 72%
- % activity ([2]; Run 1): 71.9%
- % activity ([2]; Run 2): 72.8%
- % Inhibition Run 1 ([3]; EPH-A2): 3.5%
- % Inhibition Run 2 ([3]; EPH-A2): 9.8%
- % Inhibition, Mean ([3]; EPH-A2): 6.65%
- mean % activity ([3]; EPH-A2): 93%
- % activity ([3]; EPH-A2, Run 1): 96.5%
- % activity ([3]; EPH-A2, Run 2): 90.2%
- % Inhibition Run 1 ([4]; CAMK1): 94.9%
- % Inhibition Run 2 ([4]; CAMK1): 96.1%
- % Inhibition, Mean ([4]; CAMK1): 96%
- mean % activity ([4]; CAMK1): 4.5%
- % activity ([4]; CAMK1, Run 1): 5.1%
- % activity ([4]; CAMK1, Run 2): 3.9%
- % Activity inhibition Mean ([4]; CAMK1): 95.5%
- % Activity inhibition Run 1 ([4]; CAMK1): 94.9%
- % Activity inhibition Run 2 ([4]; CAMK1): 96.1%
- % Activity remaining Run 1 ([4]; CAMK1): 5.10%
- % Activity remaining Run 2 ([4]; CAMK1): 3.90%
- % Inhibition Run 1 ([5]; IRAK1): 41.6%
- % Inhibition Run 2 ([5]; IRAK1): 44.4%
- % Inhibition, Mean ([5]; IRAK1): 43%
- mean % activity ([5]; IRAK1): 57%
- % activity ([5]; IRAK1, Run 1): 58.4%
- % activity ([5]; IRAK1, Run 2): 55.6%
- % Inhibition Run 1 ([6]; TESK1): 16.1%
- % Inhibition Run 2 ([6]; TESK1): -16.2%
- % Inhibition, Mean ([6]; TESK1): -0.05%
- mean % activity ([6]; TESK1): 100%
- % activity ([6]; TESK1, Run 1): 83.9%
- % activity ([6]; TESK1, Run 2): 116.2%
- % Inhibition Run 1 [7]: 0%
- % Inhibition Run 2 [7]: 16.4%
- % Inhibition, Mean [7]: 8%
- mean % activity [7]: 92%
- % activity ([7]; Run 1): 100%
- % activity ([7]; Run 2): 83.6%
- % Inhibition Run 1 ([8]; MKK6): 75.4%
- % Inhibition Run 2 ([8]; MKK6): 83.7%
- % Inhibition, Mean ([8]; MKK6): 80%
- mean % activity ([8]; MKK6): 20%
- % activity ([8]; MKK6, Run 1): 24.6%
- % activity ([8]; MKK6, Run 2): 16.3%

Compound: CC(=O)[O-].CC(=O)[O-].CC(=O)[O-].CC(=O)[O-].CC(=O)[O-].CC(=O)[O-].[Zn+2].[Zn+2].[Zn+2].c1ccc(-c2csc(NCCN(CCNc3nc(-c4ccccn4)cs3)CCNc3nc(-c4ccccn4)cs3)n2)nc1.c1ccc(-c2csc(NCCN(CCNc3nc(-c4ccccn4)cs3)CCNc3nc(-c4ccccn4)cs3)n2)nc1 [[L2Zn3]6+]
- % Inhibition, Mean ([1]; EPH-B3): 51%
- % Inhibition, Run 1 / Run 2 ([1]; EPH-B3): 59% and 44%
- mean % activity ([1]; EPH-B3): 49%
- % activity ([1]; EPH-B3, duplicate runs): 41% and 56%
- % Inhibition, Mean [2]: 17%
- mean % activity [2]: 83%
- % activity ([2]; duplicate runs): 73% and 93%
- % Inhibition, Mean ([3]; EPH-A2): 19%
- % Inhibition, Run 1 / Run 2 ([3]; EPH-A2): 21% and 17%
- mean % activity ([3]; EPH-A2): 81%
- % activity ([3]; EPH-A2, duplicate runs): 79% and 83%
- % Inhibition, Mean ([4]; CAMK1): 96%
- % Inhibition, Run 1 / Run 2 ([4]; CAMK1): 94% and 98%
- mean % activity ([4]; CAMK1): 3.6%
- % Activity inhibition Mean ([4]; CAMK1): 96.0%
- % Activity inhibition Run 1 ([4]; CAMK1): 94%
- % Activity inhibition Run 2 ([4]; CAMK1): 98%
- % Activity remaining Run 1 ([4]; CAMK1): 6%
- % Activity remaining Run 2 ([4]; CAMK1): 2%
- % activity ([4]; CAMK1, duplicate runs): 5.6% and 1.6%
- % Inhibition, Mean ([5]; IRAK1): 11%
- mean % activity ([5]; IRAK1): 89%
- % activity ([5]; IRAK1, duplicate runs): 97% and 81%
- % Inhibition, Mean ([6]; TESK1): 25%
- % Inhibition, Run 1 / Run 2 ([6]; TESK1): 34% and 17%
- mean % activity ([6]; TESK1): 75%
- % activity ([6]; TESK1, duplicate runs): 66% and 83%
- % Inhibition, Mean [7]: 0.5%
- mean % activity [7]: 100%
- % activity ([7]; duplicate runs): 92% and 107%
- % Inhibition, Mean ([8]; MKK6): 48%
- % Inhibition, Run 1 / Run 2 ([8]; MKK6): 59% and 37%
- mean % activity ([8]; MKK6): 52%
- % activity ([8]; MKK6, duplicate runs): 41% and 63%
